Experimental data: patent US9023844B2, “Heterocyclylpyri (mi) dinylpyrazole as fungicidals” (Bayer Intellectual Property GmbH, priority 2011, dated 2015)
Where two headings read alike, the source gives them in different places.

Legend:
[1] = test system: Pyricularia oryzae; assay type: in vivo; settings: in vivo
[2] = test system: Pyrenophora teres; assay: Example D: Pyrenophora test (barley) / preventive; assay type: in vivo; settings: in vivo
[3] = Determination of log P values by HPLC on a reverse phase column (C18), EEC-Directive 79/831 Annex V.A8 (Methods A, B, C); assay type: physicochemical; settings: for chromatographic logP: reverse phase C18 HPLC column
Procedure, shortened: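 Three C18 chromatographic methods following EEC-Directive 79/831 Annex V.A8 gave the logP values. Method C (UPLC, 2.1 mm column) ran at 40 °C and 0.8 mL/min with a 3.25 min 10–95% acetonitrile gradient. Methods A and B both ran at 55 °C and 2.0 mL/min, with gradients of 10–95% in 4.25 min and 5–95% in 1.70 min.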

[4] = test system: Sphaerotheca fuliginea; assay: Example A: Sphaerotheca test (cucumber) / preventive; assay type: in vivo; settings: in vivo
[5] = test system: Leptosphaeria nodorum; assay: Example C: Leptosphaeria test (wheat) / preventive; assay type: in vivo; settings: in vivo
[6] = test system: Fusarium graminearum; assay: microbe, parasite or virus in culture; assay type: cell-based; settings: for Growth inhibition of Fusarium graminearum in %: at 50 μM
[7] = test system: DON/Acetyl-DON production by Fusarium graminearum; assay: microbe, parasite or virus in culture; assay type: cell-based; settings: at 50 μM
[8] = test system: Puccinia recondita; assay: Example E: Puccinia test (wheat) / preventive; assay type: in vivo; settings: in vivo
[9] = test system: Uromyces appendiculatus; assay: Example B: Uromyces test (beans) / preventive; assay type: in vivo; settings: in vivo
[10] = test system: Fusarium graminearum; assay type: in vivo; settings: in vivo
[11] = test system: Fusarium nivale (var. majus); assay: Example K: Fusarium nivale (var. majus) test (wheat) / preventive; assay type: in vivo; settings: 500 ppm of active ingredient, preventive spray, evaluated 5 days after inoculation
Description: After the spray coating has been dried, the plants are slightly injured by using a sandblast and afterwards they are sprayed with a conidia suspension of Fusarium nivale (var. majus).
The test is evaluated 5 days after the inoculation.

[12] = test system: Septoria tritici; assay: Example J: Septoria tritici test (wheat) / preventive; assay type: in vivo; settings: in vivo
[13] = Method B (HPLC, reverse phase C18)
[14] = Method C (HPLC, reverse phase C18)

| SMILES | efficacy [1] [%] | efficacy [2] [%] | LogP [3, 13] | efficacy [4] [%] | efficacy [5] [%] | Growth inhibition of Fusarium graminearum in % [6] [%] | Inhibition of DON/AcDON in % [7] [%] | efficacy [8] [%] | efficacy [9] [%] | efficacy [10] [%] | efficacy [11] [%] | efficacy [12] [%] | chromatographic logP ([3]; Method C (HPLC, reverse phase C18), read-out: LogP) | chromatographic logP ([3]; pH 2.7, values in the synthesis examples, HPLC, reverse phase C18, read-out: log P (pH 2.7)) | inhibition at 50 µM ([6]; Fusarium graminearum, read-out: Growth inhibition of Fusarium graminearum in %) [%] | inhibition at 50 µM ([7]; Fusarium graminearum, read-out: Inhibition of DON/AcDON in %) [%] | LogP [3, 14] |
| --- | --- | --- | --- | --- | --- | --- | --- | --- | --- | --- | --- | --- | --- | --- | --- | --- | --- |
| CC(=O)Nc1cc(-c2c(-c3ccc(F)cc3)nn3c2OCC3)ccn1 [Example 1] | 70 | 95 | 1.19 | 75 | 88 | 90 | 98 | – | – | – | – | – | – | – | – | – | – |
| O=C(Nc1cc(-c2c(-c3ccccc3)nn3c2OCCC3)ccn1)C1CC1 [Example 7] | 94 | 95 | 1.25 | 95 | 90 | – | – | 100 | 94 | – | – | – | – | – | – | – | – |
| C[C@H](O)C(=O)Nc1cc(-c2c(-c3ccccc3)nn3c2OCCC3)ccn1 [Example 12] | 100 | 100 | 1.2 | 83 | 80 | – | – | 100 | 94 | 86 | 93 | 100 | – | – | – | – | – |
| O=C(CC1CC1)Nc1cc(-c2c(-c3ccccc3)nn3c2OCCC3)ccn1 [Example 13] | 100 | 95 | 1.54 | 70 | – | – | – | 95 | 92 | 71 | – | 100 | – | – | – | – | – |
| O=C(Nc1cc(-c2c(-c3ccccc3)nn3c2OCCC3)ccn1)C1CCOCC1 [Example 14] | 94 | 95 | 1.22 | 100 | 95 | 95 | 100 | 100 | 94 | 86 | 100 | 100 | – | – | – | – | – |
| CC(C(=O)Nc1cc(-c2c(-c3ccccc3)nn3c2OCCC3)ccn1)c1ccc(F)cc1 (stereo not drawn) [Example 18] | 94 | 95 | 2.27 | 93 | 90 | – | – | 95 | 94 | – | – | – | – | – | – | – | – |
| CC(C)(C)CC(=O)Nc1cc(-c2c(-c3ccccc3)nn3c2OCCC3)ccn1 [Example 20] | 94 | 95 | 1.88 | 100 | 95 | – | – | 100 | 97 | – | – | – | – | – | – | – | – |
| O=C(Nc1cc(-c2c(-c3ccccc3)nn3c2OCCC3)ccn1)C1(Cl)CC1 [Example 21] | 89 | 100 | 2.62 | 93 | 70 | – | – | 89 | – | – | – | – | – | – | – | – | – |
| CCC(C)C(=O)Nc1cc(-c2c(-c3ccc(F)cc3)nn3c2OCCC3)ccn1 (stereo not drawn) [Example 24] | 94 | 95 | 1.82 | 98 | 95 | 91 | 94 | 100 | 94 | 90 | 100 | 100 | – | – | – | – | – |
| O=C(CC1CC1)Nc1cc(-c2c(-c3ccc(F)cc3)nn3c2OCCC3)ccn1 [Example 27] | 100 | 95 | 1.69 | 95 | 90 | – | – | 100 | – | 86 | – | 100 | – | – | – | – | – |
| CSCC(=O)Nc1cc(-c2c(-c3ccc(F)cc3)nn3c2OCCC3)ccn1 [Example 30] | 94 | 95 | 1.72 | 98 | 70 | – | – | 100 | – | – | – | – | – | – | – | – | – |
| O=C(CC(F)(F)F)Nc1cc(-c2c(-c3ccc(F)cc3)nn3c2OCCC3)ccn1 [Example 31] | 94 | 95 | 2.13 | 88 | – | – | – | 100 | 92 | 86 | 100 | 100 | – | – | – | – | – |
| CC(C)(C)CC(=O)Nc1cc(-c2c(-c3ccc(F)cc3)nn3c2OCCC3)ccn1 [Example 34] | 94 | 100 | 2.04 | 95 | 90 | – | – | 100 | 94 | 86 | 75 | 88 | – | – | – | – | – |
| O=C(Nc1cc(-c2c(-c3ccc(F)cc3F)nn3c2OCCC3)ccn1)C1CC1 [Example 36] | 94 | 95 | 1.42 | 100 | 90 | – | – | 100 | 92 | 100 | 88 | 88 | – | – | – | – | – |
| CCC(C)C(=O)Nc1cc(-c2c(-c3ccc(F)cc3F)nn3c2OCCC3)ccn1 (stereo not drawn) [Example 39] | 94 | 95 | 1.85 | 98 | – | 89 | 99 | 100 | 94 | – | – | – | – | – | – | – | – |
| CC(C)CC(=O)Nc1cc(-c2c(-c3ccc(F)cc3F)nn3c2OCCC3)ccn1 [Example 40] | 94 | 95 | 1.88 | 98 | – | 85 | 99 | 100 | 94 | – | – | – | – | – | – | – | – |
| CSCC(=O)Nc1cc(-c2c(-c3ccc(F)cc3F)nn3c2OCCC3)ccn1 [Example 45] | 94 | 90 | 1.75 | 95 | – | 78 | 100 | 90 | 92 | – | – | – | – | – | – | – | – |
| O=C(CC(F)(F)F)Nc1cc(-c2c(-c3ccc(F)cc3F)nn3c2OCCC3)ccn1 [Example 46] | 94 | 90 | 2.13 | – | – | – | – | 100 | 94 | 86 | – | 88 | – | – | – | – | – |
| CC(C)(C)CC(=O)Nc1cc(-c2c(-c3ccc(F)cc3F)nn3c2OCCC3)ccn1 [Example 49] | 94 | 95 | 2.1 | 93 | 90 | – | – | 95 | 94 | – | – | – | – | – | – | – | – |
| CC(=O)Nc1cc(-c2c(-c3ccccc3)nn3cccnc23)ccn1 [Example 51, N-[4-(2-phenylpyrazolo[1,5-a]pyrimidin-3-yl)pyridin-2-yl]acetamide] | – | – | – | – | – | – | – | – | – | – | – | – | 1.41 | 1.41 | 90 | 100 | – |
| O=C(Nc1cc(-c2c(-c3ccc(F)cc3)nn3c2OCCC3)ccn1)C(=O)N1CCCCC1 [Example 70] | – | – | 2.23 | – | – | 76 | 90 | – | – | – | – | – | – | – | – | – | – |
| CCC(=O)Nc1cc(-c2c(-c3ccc(F)cc3)nn3c2NCCC3)ccn1 [Example 80] | 90 | 100 | – | 93 | – | – | 100 | – | 78 | – | – | – | – | – | – | – | 1.35 |
| O=C(C1CC1)N(C(=O)C1CC1)c1cc(-c2c(-c3ccc(F)cc3)nn3cccnc23)ccn1 [Example 84] | 90 | 90 | – | 88 | – | – | – | – | – | 83 | 100 | 88 | – | – | – | – | 2.94 |
| O=C(Nc1cc(-c2c(-c3ccc(F)cc3)nn3cccnc23)ccn1)C1CC1 [Example 88] | 90 | 95 | – | 93 | – | 55 | 70 | – | – | – | – | – | – | – | – | – | 1.75 |
| CC(C)C(=O)N(C(=O)C(C)C)c1cc(-c2c(-c3ccccc3)nn3c2NCCC3)ccn1 [Example 92] | – | – | – | 100 | – | – | 99 | 78 | 78 | – | – | – | – | – | – | – | 3.08 |
| CC(C)C(=O)Nc1cc(-c2c(-c3ccsc3)nn3c2OC[Si](C)(C)C3)ccn1 [Example 101] | 80 | 100 | – | – | 80 | 93 | 100 | – | 75 | – | – | – | – | – | – | – | 2.11 |
